The supplement of paper PMC13380429

Assays:
U2OS [1] = test: cell viability relative to DMSO; higher = less toxic; details: 72 h
HepG2 [2] = test: as above; details: 72 h
Calu-3 [3] = test: as above; details: 72 h
Vero E6 [4] = test: as above; details: 72 h
Caco-2 [5] = test: as above; details: 72 h
[6] = tested on: A549-ACE2 infected with SARS-CoV-2; test: morphology score (similarity to uninfected cells); higher = more like uninfected cells; details: 24 h
[7] = tested on: A549-ACE2 infected with SARS-CoV-2; test: cell count relative to DMSO; higher = less toxic; details: 24 h
U2OS [8] = test: relative viability EC50 (midpoint between 100% and the lowest measured viability); higher = less toxic; details: 72 h
HepG2 [9] = test: as above; details: 72 h
Calu-3 [10] = test: as above; details: 72 h
Vero E6 [11] = test: as above; details: 72 h
Caco-2 [12] = test: as above; details: 72 h
[13] = tested on: A549-ACE2 infected with SARS-CoV-2; test: SARS-CoV-2 infection rate relative to DMSO; higher = more infection; details: 24 h
U2OS [14] = test: drug sensitivity score (DSS) for viability; higher = more toxic; extreme values may be limits of the assay; details: 72 h
HepG2 [15] = test: as above; details: 72 h
Calu-3 [16] = test: as above; details: 72 h
Vero E6 [17] = test: as above; details: 72 h
Caco-2 [18] = test: as above; details: 72 h
A549-ACE2 = test: drug-induced phospholipidosis relative to tamoxifen; higher = more phospholipidosis

N#Cc1ccc(N2N=C3c4ccc(C(=O)O)cc4CC[C@@H]3[C@@H]2C2CCCC2)cc1Cl
Details | SARS-CoV-2 infection rate, [13] [%] | cell count, [7] [%] | cell viability, Caco-2 [5] [%] | cell viability, Calu-3 [3] [%] | cell viability, HepG2 [2] [%] | cell viability, U2OS [1] [%] | cell viability, Vero E6 [4] [%] | morphology score, [6]
1 nM | – | – | 92 | 101 | 93.1 | 97.1 | 96 | –
10 nM | – | – | 98.1 | 97.6 | 96.3 | 96.4 | 106 | –
100 nM | – | – | 105 | 95 | 114 | 99.4 | 90 | –
0.3 µM | 101 | 100 | – | – | – | – | – | -0.02
1000 nM | – | – | 95.1 | 92.5 | 95.5 | 97.7 | 98.5 | –
3 µM | 99 | 107 | – | – | – | – | – | 0.24
10000 nM | – | – | 101 | 106 | 103 | 99.6 | 117 | –
10 µM | 98 | 96 | – | – | – | – | – | -0.01
30 µM | 75 | 97 | – | – | – | – | – | 0.57

Details | drug sensitivity score | relative viability EC50 [µM]
Caco-2 [12] | – | > 10
Caco-2 [18] | 0 | –
Calu-3 [10] | – | > 10
Calu-3 [16] | 0 | –
HepG2 [9] | – | > 10
HepG2 [15] | 0 | –
U2OS [8] | – | > 10
U2OS [14] | 0 | –
Vero E6 [11] | – | > 10
Vero E6 [17] | 0 | –

O=c1oc(-c2ccc(C(F)(F)F)cc2)nn1Cc1cc(Cl)ccc1O
Details | SARS-CoV-2 infection rate [%] | cell count [%] | cell viability [%] | morphology score
Caco-2 [5], 1 nM | – | – | 109 | –
Caco-2 [5], 10 nM | – | – | 94.7 | –
Caco-2 [5], 100 nM | – | – | 101 | –
Caco-2 [5], 1000 nM | – | – | 99.2 | –
Caco-2 [5], 10000 nM | – | – | 92.6 | –
HepG2 [2], 1 nM | – | – | 105 | –
HepG2 [2], 10 nM | – | – | 107 | –
HepG2 [2], 100 nM | – | – | 99.7 | –
HepG2 [2], 1000 nM | – | – | 99.2 | –
HepG2 [2], 10000 nM | – | – | 97.3 | –
[6], 0.3 µM | – | – | – | 0.38
[6], 3 µM | – | – | – | -0.01
[6], 10 µM | – | – | – | 0.05
[6], 30 µM | – | – | – | 0.43
[7], 0.3 µM | – | 101 | – | –
[7], 3 µM | – | 102 | – | –
[7], 10 µM | – | 80 | – | –
[7], 30 µM | – | 65 | – | –
[13], 0.3 µM | 84 | – | – | –
[13], 3 µM | 102 | – | – | –
[13], 10 µM | 99 | – | – | –
[13], 30 µM | 68 | – | – | –

Details | drug sensitivity score | relative viability EC50 [µM]
Caco-2 [12] | – | > 10
Caco-2 [18] | 0 | –
HepG2 [9] | – | > 10
HepG2 [15] | 0 | –

drug-induced phospholipidosis [%], A549-ACE2
Details | 0.3 µM | 0.833333 µM | 3.33333 µM | 6.66667 µM | 10 µM | 30 µM
24 h | -1 | -1.2 | -2.36 | -1.21 | 0.96 | 6.42
48 h | 3.5 | -0.73 | 0.6 | 1.96 | 2.52 | 8.32
72 h | 4.07 | 0.196 | 1.24 | 1.18 | 2.49 | 10.1
